Test results: article PMC11641365, “Evaluation of In Vitro Biological Activity of Flavanone/Chromanone Derivatives: Molecular Analysis of Anticancer Mechanisms in Colorectal Cancer” (International Journal of Molecular Sciences, 2024)

Experiments:
[1] = test system: HT-29; test: Intracellular GSH level, monochlorobimane (MCB) probe; assay type: cell-based, human; settings: compound at IC50, 24 h, vs control
Description: The spectrofluorimetric method with monochlorobimane (MCB; Sigma-Aldrich; St. Louis, MO, USA) was used to determine GSH. Monochlorobimane reacts with glutathione in a reaction catalyzed by cellular glutathione S-transferase. The reaction produces a fluorescent bimane-glutathione conjugate (GSH-MCB). A major advantage of MCB is its ability to penetrate the cell membrane, which is why it is used as a probe to determine the amount of GSH in living cells.
Cells were seeded in black 96-well fluorometric microplates at a density of 10 × 10^3 cells/mL. […] Following compound incubation, the medium was removed, and the cell monolayers were washed twice with HBSS (140 mM NaCl, 5 mM KCl, 0.8 mM MgCl2, 1.8 mM CaCl2, 1 mM Na2HPO4, 10 mM HEPES, and 1% glucose). A solution of MCB at a final concentration of 40 μM was added to each well and incubated in a CO2 cell culture incubator at 37 °C for 20 min. A 40 mM MCB stock solution was prepared by dissolving 9 mg of the reagent in 1 mL of absolute ethanol. Fluorescence was measured using a Perkin-Elmer LS-5B spectrofluorometer (Waltham, MA, USA) at the following excitation and fluorescence emission wavelengths: λex = 380 nm/λem = 470 nm. After incubation with MCB, the cells were lysed with 50 μL of lysis buffer (10 mM TRIS-HCl; pH 8 containing 0.1% Triton X-100). In order to normalize the number of cells in individual samples, the amount of DNA was determined by adding 50 μL of ethidium bromide (EB, final concentration 0.2 mM) to each well after measuring the MCB fluorescence and measuring the EB fluorescence at an excitation wavelength of λex = 530 nm and an emission wavelength of λem = 590 nm. The results obtained using the standard curve were converted to nM of GSH.

[2] = test system: HT-29; test: Cell cycle analysis via flow cytometry (propidium iodide); assay type: cell-based, human; settings: compound at IC50, 24 h, vs control
Description: The most commonly used fluorescent dyes for cell cycle analysis are fluorochromes that penetrate the cell membrane into the interior of permeabilized cells and bind stoichiometrically to DNA via intercalation, e.g., DAPI, propidium iodide (PI). The analysis is performed on cells fixed in ethanol. In this work, the cell cycle analysis was performed using the method described by Darzynkiewicz and Juan.
Cells (10 × 10^3) were seeded in 35 mm dishes and cultured in the medium for 24 h to attain the logarithmic growth phase. […] Subsequently, cells were trypsinized and centrifuged for 10 min at 400× g at 4 °C. The cell suspension in 100 μL of PBS was fixed in 1 mL of 70% ethanol (−20 °C) and stored at this temperature until analysis. Immediately before analysis, the ethanol-fixed cell suspension was centrifuged at 10,000 rpm for 10 min at 4 °C. The pellet was washed with cold (4 °C) PBS to remove residual ethanol, and the cell suspension was centrifuged again under the same conditions. A volume of 300 μL of PBS containing 4 mg/mL propidium iodide (final concentration 75 μM) and 1 mg/mL RNAse A (final concentration 20 μg/mL) was added to the cell pellet and incubated for at least 30 min at 37 °C in the dark. Stained cells were analyzed using a flow cytometer (Becton Dickinson, Franklin Lakes, NJ, USA), counting 10,000 cells in each sample. Data were analyzed using FlowJo 10.10 software (FlowJo, Williamson Way Ashland, OR, USA).

[3] = test system: HCT 116; test: MTT cell viability assay; assay type: cell-based; settings: Homo sapiens, 24 h incubation with compound, mean ± SD of three experiments, read-out: Cytotoxic effect, IC50
Description: The cytotoxic activity of the 3-benzylideneflavanones, 3-benzylidenechromanones derivatives (compounds 1, 2, 3, 4, 5) and 5′-(3-methoxyphenyl)-2-phenyl-4′,5′-dihydro-4H-spiro[chromano-3,3′-pirazol]-4-one (compound 3a) was evaluated using the MTT assay (4,5-dimethylthiazol-2-yl)-2,5-diphenyltetrazoliumbromide), a colorimetric method that quantifies cell viability.
Cell viability was determined using the metabolic microplate spectrophotometric assay with Methylthiazolyl diphenyltetrazolium bromide (MTT) (Sigma-Aldrich; St. Louis, MO, USA). The MTT method belongs to metabolic tests for determining cell viability and consists of measuring the absorbance of a violet solution of formazan, a product of the reduction of a water-soluble yellow MTT by oxidoreductive enzymes (mainly mitochondrial succinate dehydrogenase) of living cells. The amount of the reaction product (water-insoluble formazan crystals) is proportional to the number of living and metabolically active cells in the sample. In the case of damaged or dead cells, formazan is formed in smaller amounts, or it is not formed.
The appropriate number of cells for a given cell line (6–8 × 10^3 cells/mL) were seeded onto colorless, sterile 96-well microplates (Nunc, Roskilde, Denmark) in the number appropriate for a given cell line. After 24 h of culture, various concentrations of the studied compounds (10^−7–10^−5 M) freshly prepared in DMSO (final concentration DMS < 0.1%) and diluted with complete culture medium were added and incubated in a CO2 incubator for 24 h. After this time, the medium was removed; the cell monolayer was washed twice with sterile PBS solution; and fresh culture medium was added to the microplate wells. After 48 h of cell culture, the MTT test was performed. A volume of 50 μL of tetrazolium salt solution (final concentration 0.05 mg/mL) was added to each microplate well. The microplate was placed for 3–4 h (depending on the cell line) in a CO2 incubator. After incubation, 100 μL of DMSO was added to the wells of the microplate to dissolve the purple formazan crystals formed in the living cell environment. The absorbance of the formazan solution, after gentle mixing, was read at a wavelength of λ = 580 nm and a reference wavelength of λ = 720 nm (Biotek Power Wave HT, Biotek Instruments, Winooski, VT, USA). The percentage of living cells was calculated by comparing the absorbance value of the tested samples with the absorbance value of the control (cells not treated with compounds). The absorbance of the control was taken as 100%.

| SMILES | Decrease in GSH levels [1] | Increase in the G2/M phase cell percentage [2] [%] | IC50 [3] [µM] |
| --- | --- | --- | --- |
| O=C1/C(=C/c2ccccc2)C(c2ccccc2)Oc2ccccc21 (stereo not drawn) [Compound 5] | 25–30% | 25 |  |
| COc1cccc(/C=C2/C(=O)c3ccccc3OC2c2ccccc2)c1 (stereo not drawn) [Compound 3] |  |  | 18.6 ± 1.4 |
| O=C1/C(=C/c2ccccc2)COc2ccccc21 [Compound 1] | 25–30% | 25 | 10.1 ± 1.3 |
